# From patent publication US20260294885A1, “TREATMENT OF INFLAMMATORY CONDITIONS COMPRISING IMU-856” (IMMUNIC AG, priority 2023, published 2026)
# Entries after “also recorded” stand apart in the source; their conditions may differ.
# Assays:
# [1] = tested on: other histone deacetylases (HDACs); test: Enzymatic activity of other histone deacetylases; type: biochemical
# claudin-2 = test: Tight junction protein claudin-2 in a TEER model; type: cell-based, human
# Source text: In one TEER model, tight junction (TJ)-related proteins were investigated, and a normalisation of TJ proteins (claudin (Cldn)-1 and claudin-2) was observed.
# [2] = tested on: patients with celiac disease; test: Nutrient absorption (vitamin B12, zinc, ferritin), Part C; type: in vivo, human; conditions: for increase in vitamin B12 levels: over the course of the trial; for mean increase in vitamin B12 levels / mean increase in zinc levels: baseline to Day 29
# Protocol: In Part A, healthy subjects were randomised to single ascending doses of IMU-856 (10 mg to 160 mg) or placebo. In Part B healthy subjects were randomised to multiple once-daily doses of IMU-856 (40, 80, and 160 mg) or placebo for 14 days. Part C randomised patients with celiac disease who were on a gluten-free diet to multiple once-daily doses of IMU-856 (80 mg and 160 mg) or placebo for 28 days; a once-daily gluten challenge (6 g) was introduced on Day 14 and ended on Day 28. 71 healthy subjects were enrolled in Part A and B (N=19 placebo and N=52 IMU-856) and 43 patients with CelD in Part C (N=14 placebo; N=14 for 80 mg, and N=15 for 160 mg). In Parts A and B, treatment-emergent adverse events (TEAEs) occurred in 24 (73%) and 15 (79%) of subjects receiving any dose of IMU-856 compared to 6 (50%) and 5 (71%) with placebo, respectively. […] In Part C, the most common adverse events with any dose of IMU-856 by preferred term were headache (13 [45%]), nausea (9 [31%]), diarrhoea (8 [28%]), and abdominal distension (7 [24%]). […] In Part C, the mean change in villous height from baseline to Day 29 with 80 mg and 160 mg was −20.9±34.8 μm, and −22.5±51.1 μm, respectively, and −60.3±52.2 μm with placebo. […] Mean change in plasma citrulline increased with 80 mg and 160 mg from baseline to Day 14 (2.4±6.2 and 6.1±5.9 μmol/L, respectively) and from baseline to Day 29 (2.8±7.6 and 2.2±5.3 μmol/L, respectively), but not with placebo (−2.7±5.6 and −4.0±6.5 μmol/L). […] Mean increase in zinc levels from baseline to Day 29 with 80 mg and 160 mg were 0.3±1.4 and 0.9±2.1 μmol/L compared to a mean decrease in placebo (−0.9±2.1 μmol/L). Gluten-induced symptoms were also attenuated by IMU-856. […]
smiles,measurement,setting,value
"Cn1c(COc2cc(C(F)(F)F)ccn2)nnc1[C@H]1CC[C@H](c2cnn([C@H]3CC[C@H](N4CC5(CCO5)C4)CC3)c2)CC1 [IMU-856, 6-(trans-4-(4-(trans-4-(4-methyl-5-(((4-(trifluoromethyl)pyridin-2-yl)oxy)methyl)-4H-1,2,4-triazol-3-yl)cyclohexyl)-1H-pyrazol-1-yl)cyclohexyl)-1-oxa-6-azaspiro[3.3]heptane]",inhibition of enzymatic activity of other HDACs,[1],does not inhibit
same,claudin-2,claudin-2,normalisation
same,increase in vitamin B12 levels,[2]; 80 mg (N=11),45.8 pmol/L
same,mean increase in vitamin B12 levels,[2]; 80 mg,45.8 ± 94.4 pmol/L
same,mean increase in zinc levels,[2]; 80 mg,0.3 ± 1.4 µmol/L
same,increase in vitamin B12 levels,[2]; 160 mg (N=13),74.2 pmol/L
same,mean increase in vitamin B12 levels,[2]; 160 mg,74.2 ± 99.9 pmol/L
same,mean increase in zinc levels,[2]; 160 mg,0.9 ± 2.1 µmol/L
same,gluten-induced iron malabsorption (ferritin levels),[2]; Baseline to Day 29,ameliorates the gluten-induced iron malabsorption; also recorded: decreased to a lesser extent
same,nutrient absorption (vitamin B12),[2]; in words,enhances nutrient absorption in a dose-dependent manner
same,nutrient absorption (zinc),[2]; in words,enhances nutrient absorption in a dose-dependent manner; also recorded: A similar responses to treatment was observed for zinc
